The values that follow come from publication PMC11868579 (Nature Communications, 2024).

Where “and” joins values, the source holds several entries; their conditions need not be identical. Identical values can stand only once.

In one data set the test system is c-Myc-activity. Description: c-Myc-regulated luciferase reporter in SW620 cells. Particulars: for c-Myc, Average / CMV, Average: SW620; for c-Myc, Average: c-Myc-regulated firefly luciferase reporter; for CMV, Average: constitutive CMV promoter-regulated renilla luciferase reporter. It counts as cell-based, human. The procedure:
Luminescence was measured using the Dual-glo luciferase assay (mean ± SEM from 3 biological replicates). b SW620 cells were transfected with a c-Myc-regulated firefly luciferase expression reporter or a constitutive CMV promoter-regulated renilla luciferase reporter. Cells were treated for 24 hr with 1 or 10 µM compound 4 or the […] kinase inhibitor AZD8055 as positive control (mean ± SEM from 3 biological replicates). An ordinary one-way ANOVA with Tukey multiple comparisons test was performed comparing c-Myc-regulated firefly luciferase expression or CMV-regulated Renilla luciferase expression following the different treatments. For c-Myc-regulated firefly luciferase expression, all significant p values […]
were <0.0001. […]
Source data is located in the Supplementary Source Data file
In general terms: A reporter such as luciferase makes a cellular process visible.

In a further data set the target is T1, eIF4E (Homo sapiens, UniProt P06730).
T1 construct: endogenous in cells; host or cells: H1299
Description: CETSA in intact H1299 cells. It counts as cell-based. Particulars: 6 hrs; for eIF4E stabilisation, eIF4E normalised to vinculin relative to average control (plotted on graph), Average: H1299, 57 °C, control = 1.000. How it is done:
Cells (1.5 × 10^6 cells) were plated into 75 cm^2 flasks and allowed to attached overnight. After treatment with compound 4 or 5 for 6 h, they were harvested by trypsinisation and washed x2 in ice cold PBS. Cells were resuspended in 1 ml of cold PBS supplemented with protease and phosphatase inhibitors (Fisher Scientific, cat#1861281). Resuspended cells were divided into 100 μl aliquots and centrifuged at 300 x g for 3 min at 4 °C. Following centrifugation, 75μl of supernatant was removed and cells resuspended in the remaining volume. Cell suspensions were heated at 40.9, 43.7, 48.1, 52.9, 57.6, 62.4, 67.2, 71.9, 76.3 and 79.1 °C for 3 mins followed by cooling at 20 °C for 3 min[25]. Suspensions were freeze-thawed twice using liquid nitrogen. Soluble fractions were separated from cell debris by centrifuging at 20,000 x g for 30 min at 4 °C. Samples were then analysed by Western Blot.

A further data set concerns SW620 cells. Kind of data set: CellTiter-Blue cell viability, SW620. It counts as cell-based, human. Particulars: SW620, 4 days. The procedure: Cell viability was measured by CellTiter-Blue® Cell Viability Assay. Cells were seeded in 96 well plates (Corning, cat#353072) and left overnight. Compounds were added at a range of concentrations and plates incubated at 37 °C for 96 hr. Cell titre blue reagent (Promega, Hampshire, UK, cat# G8081) was added (5 μl/well) and incubated for a further 2 h at 37 °C. Fluorescence (579Ex/584Em) was measured using a PHERAstar plate reader.
Supplementary Fig. 10 Determination of the effects of compound 4 on protein synthesis and viability. a HEK293 cells were transfected with protein synthesis reporter expressing bicistonic mRNA with a cap-dependent luciferase reporter and a cap-independent luciferase driven by a viral IRES. Cells were treated with 1 or 10 µM with compound 4 for 24 hr. Luminescence was measured using the Dual-glo luciferase assay (mean ± SEM from 3 biological replicates). b SW620 cells were transfected with a c-Myc-regulated firefly luciferase expression reporter or a constitutive CMV promoter-regulated renilla luciferase reporter. Cells were treated for 24 hr with 1 or 10 µM compound 4 or the […] kinase inhibitor AZD8055 as positive control (mean ± SEM from 3 biological replicates). […]
vs 1 µM AZD8055). c Cell viability measured by cell titre blue assay was performed in SW620 cells treated with compound 4 for 4 days (mean ± SEM from 3 biological replicates). […]
(The colour change of resazurin is a common sign of viable cells or microbes.)

Data set [1] can be described thus: Human microsomal clearance assay. Format: in vitro ADME.
Another data set addresses eIF4E–4E-BP1 interaction (Homo sapiens, UniProt P06730). Kind of data set: Electro-chemiluminescent binding assay, eIF4E:4E-BP1, SW620 cell lysates. Format: biochemical. Particulars: for 4E-BP1:eIF4E luminescence signal normalised to DMSO control: SW620, Expt 1, Expt 2, Fig. 4d. The arrangement: endogenous in cells; host or cells: SW620 cell lysates. The procedure: This assay uses plates with carbon electrodes and electro-chemiluminescent labels (SULFO-TAGs) that are conjugated to detection antibodies. When an electric current is applied to the plate electrodes the SULFO-TAG labels will emit light that is measured to quantify analytes in the sample. […] The plates were washed with 3 ×150 µl/well MSD wash buffer (cat#R61AA-1; 0.2% Tween-20 in PBS), then blocked with 150 µl/well block buffer (MSD, cat# R93AA) for 1 h. […] The incubated plates were washed 4x in 150 µl in MSD wash buffer and were re-blocked by the addition of 25 μl of blocking buffer containing a 1:500 dilution of the secondary antibody and incubated for 1 hr at RT with rotational shaking. […] Plates were then washed again 4x in 150 µl in MSD wash buffer and 25 μl of a 1:50 dilution of Goat anti-rabbit Sulfo-Tag (MSD, Cat# R32AB-1) in MSD blocking buffer was added and the plates incubated for 1 h at RT with rotational shaking. After a final wash step, 150 μl Read Buffer T4X (MSD, Cat# R92-TC2) was added and the plate read using the MSD QuickPlex SQ 120 plate reader.

T1 sequence (P06730 whole entry): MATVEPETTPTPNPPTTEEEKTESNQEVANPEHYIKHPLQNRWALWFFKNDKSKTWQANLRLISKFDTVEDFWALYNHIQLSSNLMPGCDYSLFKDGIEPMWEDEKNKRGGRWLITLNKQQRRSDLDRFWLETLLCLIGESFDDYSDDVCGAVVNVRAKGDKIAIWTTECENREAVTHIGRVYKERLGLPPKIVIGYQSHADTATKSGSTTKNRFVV
eIF4E–4E-BP1 interaction, sequence (P06730 2-217 limits assumed): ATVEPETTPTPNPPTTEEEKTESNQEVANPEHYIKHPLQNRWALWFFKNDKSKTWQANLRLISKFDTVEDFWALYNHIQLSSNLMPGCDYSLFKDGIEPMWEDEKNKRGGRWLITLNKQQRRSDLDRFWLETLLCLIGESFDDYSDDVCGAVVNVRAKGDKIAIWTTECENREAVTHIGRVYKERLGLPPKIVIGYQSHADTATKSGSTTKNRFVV

Take `CC[C@H](O[C@H](C)CO)c1ccc(-c2ccccc2F)cc1NCCO` [Compound 4]: the results for the “c-Myc, Average” value in the data set on c-Myc-activity (1μM) and in the data set on c-Myc-activity (10μM) were 80.09 and 67.68, respectively. The “CMV, Average” value worked out at 89.27 in the data set with c-Myc-activity (1μM) and 82.92 in the data set on c-Myc-activity (10μM). In the data set on c-Myc-activity (SW620 cells, 1 or 10 µM, 24 hr), the “activity in c-Myc reporter assay” value is “showed no activity”. Further, the “eIF4E stabilisation, eIF4E normalised to vinculin relative to average control (plotted on graph), Average” value is given as 1.140 on eIF4E (0.5 μM), 1.298 at eIF4E (1 μM), 1.771 on eIF4E (5 μM) and 2.067 at eIF4E (10 μM). Besides, at eIF4E (H1299 cells, 50 µM), the “protection of eIF4E from thermal denaturation” value is “protected eIF4E from thermal denaturation”. Also, on eIF4E (read-out: EC50, thermal protection of eIF4E (target engagement), intact H1299 cells, 57.6 °C), the 50% effective concentration (EC50) amounted to 2 µM. Also, the antiproliferative activity entry with SW620 cells was “lacked on-target antiproliferative activity”. In data set [1] (1 µM, 0.25 mg/mL microsomes), the “Human microsomal intrinsic clearance” value is 210 µL/min/mg protein. The “clearance in human liver microsomes” value in data set [1] (human) is reported as “moderate clearance”. Besides, the “4E-BP1:eIF4E luminescence signal normalised to DMSO control” value on eIF4E–4E-BP1 interaction (0.4 μM) is 98.1% and 93.2%; on eIF4E–4E-BP1 interaction (4 μM), 74.9% and 84.1%; on eIF4E–4E-BP1 interaction (12 μM) it was 74.8% and 76%; at eIF4E–4E-BP1 interaction (40 μM), 76.2% and 83.6%. Also, on eIF4E–4E-BP1 interaction (SW620 cell lysates), the “effect on 4E-BP1 binding to eIF4E” value is listed as “not 4E-BP1 binding to eIF4E”. Also, the “4E-BP1:eIF4E SW620, luminescence ratio normalised to DMSO control” value on eIF4E–4E-BP1 interaction (SW620 lysates, 100 µM, 30 min, single experiments Expt 1, Expt 2) is 103% and 91%.

What is called EC50 is the midpoint of the concentration-response curve.
